Test results as given in patent publication US20130204033A1, “ANTIPROLIFERATIVE COMPOUNDS, CONJUGATES THEREOF, METHODS THEREFOR, AND USES THEREOF” (Medarex, Inc., priority 2009, published 2013).

What was measured:
Format in all cases: cell-based, human
[1] = tested on: UO-31; test: ATP luminescence proliferation assay, UO-31; details: ATP luminescence, UO-31, 48 h incubation; read-out: EC50 UO-31 (48 h)
Method in brief: (§1)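 Cells seeded at 1.0×10^3 cells/well for 3 h, then exposed to 1:3 serial dilutions of free compounds or conjugates for 48, 72 or 96 h as noted. ATP measured by Glo luminescent viability kit; EC50 taken as concentration reducing proliferation by 50%.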

[2] = tested on: BT474; test: ATP luminescence proliferation assay, BT474; details: ATP luminescence, BT474, 48 h incubation; read-out: EC50 BT474 (48 h)
Method in brief: as §1

[3] = tested on: HPAC; test: ATP luminescence proliferation assay, HPAC; details: ATP luminescence, 72 h incubation, read-out: EC50 HPAC (72 h)
Method in brief: as §1

[4] = tested on: SKOV3; test: 3H thymidine proliferation assay, SKOV3; details: 3H thymidine method, 72 h incubation; read-out: EC50, SKOV3
Method in brief: (§2)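 Cells were seeded at 1.0×10^4 cells/well and treated with 1:3 serial dilutions of free compound or conjugate for 72 h. ^3H-thymidine (1.0 μCi/well) was pulsed for the final 24 h, and uptake was measured by scintillation counting. EC50 is the concentration reducing proliferation by 50%.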

[5] = tested on: RPMI-8226; test: ATP luminescence proliferation assay, RPMI-8226; details: ATP luminescence, RPMI-8226, 72 h incubation; read-out: EC50 RPMI-8226 (72 h)
Method in brief: as §1

[6] = tested on: RPMI-8226; test: 3H thymidine proliferation assay, RPMI-8226; details: 3H thymidine method, 72 h incubation; read-out: EC50, RPMI-8226
Method in brief: as §2

[7] = tested on: 786-O; test: 3H thymidine proliferation assay, 786-O; details: 3H thymidine method, 72 h incubation; read-out: EC50, 786-O
Method in brief: as §2

[8] = tested on: DMS53; test: 3H thymidine proliferation assay, DMS53; details: 3H thymidine method, 72 h incubation; read-out: EC50, DMS53
Method in brief: as §2

[9] = tested on: PC3; test: 3H thymidine proliferation assay, PC3; details: 3H thymidine method, 72 h incubation; read-out: EC50, PC3
Method in brief: as §2

[10] = tested on: ZR-75; test: 3H thymidine proliferation assay, ZR-75; details: 3H thymidine method, 72 h incubation; read-out: EC50, ZR-75
Method in brief: as §2

[11] = tested on: A549; test: 3H thymidine proliferation assay, A549; details: 3H thymidine method, 72 h incubation; read-out: EC50, A549
Method in brief: as §2

[12] = tested on: Nomo-1; test: ATP luminescence proliferation assay, Nomo-1; details: ATP luminescence, Nomo-1, 72 h incubation; read-out: EC50 Nomo-1 (72 h)
Method in brief: as §1

[13] = tested on: 786-O; test: ATP luminescence proliferation assay, 786-O; details: ATP luminescence, 786-O, 72 h incubation; read-out: EC50 786-O (72 h)
Method in brief: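 Cells seeded at 1.0×10^3 cells/well for 3 h, then exposed to 1:3 serial dilutions of free compounds or conjugates for 48, 72 or 96 h, as noted. ATP measured by luminescent cell viability kit; EC50 taken as concentration reducing proliferation by 50%.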

[14] = tested on: U-87 MG; test: 3H thymidine proliferation assay, U-87 MG; details: 3H thymidine method, 72 h incubation; read-out: EC50, U-87 MG
Method in brief: as §2

[15] = tested on: HL-60; test: 3H thymidine proliferation assay, HL-60; details: 3H thymidine method, 72 h incubation; read-out: EC50, HL-60
Method in brief: as §2

[16] = tested on: SW-620; test: ATP luminescence proliferation assay, SW-620; details: ATP luminescence, SW-620, 96 h incubation; read-out: EC50 SW-620 (96 h)
Method in brief: as §1

[17] = tested on: BT474; test: 3H thymidine proliferation assay, BT474; details: 3H thymidine method, 72 h incubation; read-out: EC50, BT474
Method in brief: as §2

[18] = tested on: SKOV3; test: ATP luminescence proliferation assay, SKOV3; details: ATP luminescence, SKOV3, 72 h incubation; read-out: EC50 SKOV3 (72 h)
Method in brief: as §1

Structure (SMILES): CC[C@H](C)[C@H](NC(=O)[C@H]1CCCCN1C)C(=O)N(C)[C@H](C[C@@H](OC)c1nc(C(=O)N[C@@H](Cc2ccc(N)cc2)CC(C)C(=O)O)cs1)C(C)C (stereo partly drawn) [Compound 51]
- EC50 [1]: > 100 nM
- EC50 [2]: 11 nM
- EC50 [3]: 4.5 nM
- EC50 [4]: 4.4 nM
- EC50 [5]: 5.2 nM
- EC50 [6]: 2.2 nM
- EC50 [7]: 10 nM
- EC50 [8]: 24 nM
- EC50 [9]: 5.6 nM
- EC50 [10]: 1.3 nM
- EC50 [11]: 7.8 nM
- EC50 [12]: 7.4 nM
- EC50 [13]: 19 nM
- EC50 [14]: 0.75 nM
- EC50 [15]: 4.2 nM
- EC50 [16]: 6.4 nM
- EC50 [17]: 30 nM
- EC50 [18]: 10 nM
